Test [1] deals with T1, Melatonin receptor type 1B (Homo sapiens) (UniProt P49286).
T1 sequence (whole entry): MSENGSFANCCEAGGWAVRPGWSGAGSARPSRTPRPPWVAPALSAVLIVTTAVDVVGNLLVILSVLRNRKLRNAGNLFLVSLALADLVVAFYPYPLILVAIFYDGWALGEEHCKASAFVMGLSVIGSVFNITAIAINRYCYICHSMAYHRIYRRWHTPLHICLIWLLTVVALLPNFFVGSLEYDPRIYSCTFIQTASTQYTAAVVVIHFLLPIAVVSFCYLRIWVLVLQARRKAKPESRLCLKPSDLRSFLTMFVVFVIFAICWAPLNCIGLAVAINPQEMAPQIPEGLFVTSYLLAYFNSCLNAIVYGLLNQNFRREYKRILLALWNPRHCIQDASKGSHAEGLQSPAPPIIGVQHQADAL

Test [2] deals with T2, Melatonin receptor type 1B (Homo sapiens, UniProt P49286).
T2 sequence (P49286 whole entry): T1 sequence (whole entry)
Kind of test: Binding affinity for human recombinant Melatonin receptor type 2 expressed in NIH3T3 cells. The class given is cell-based.

Test [3] deals with T3, Melatonin receptor type 1A (Homo sapiens, UniProt P48039).
Test [4] addresses T3, Melatonin receptor type 1A. Kind of test: Binding affinity for human recombinant Melatonin receptor type 1 expressed in NIH3T3 cells. Type of test: cell-based.

The values that follow come from ChEMBL document CHEMBL1138675 (J Med Chem, 2004).

T3 sequence (P48039 whole entry): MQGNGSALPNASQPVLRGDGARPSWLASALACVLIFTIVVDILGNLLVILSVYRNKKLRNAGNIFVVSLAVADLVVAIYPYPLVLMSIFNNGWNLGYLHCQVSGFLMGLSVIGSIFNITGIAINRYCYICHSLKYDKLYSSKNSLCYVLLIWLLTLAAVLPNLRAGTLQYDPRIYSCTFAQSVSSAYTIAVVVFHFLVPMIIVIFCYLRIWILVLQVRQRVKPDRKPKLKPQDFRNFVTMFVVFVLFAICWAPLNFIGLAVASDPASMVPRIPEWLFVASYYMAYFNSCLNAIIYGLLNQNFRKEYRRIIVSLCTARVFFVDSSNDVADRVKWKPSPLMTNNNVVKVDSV

A word on the Ki: it is a dissociation constant, usually derived from enzyme kinetics or from competition with a known ligand. `CC(=O)NCCN1c2ccccc2C=Cc2ccccc21`: the IAr in test [1] is -0.03; in test [3] it was 0.01. The results for the Ki in test [2] and in test [4] were 126 nM and 112 nM, respectively.
For the molecule `CCC(=O)NCCN1c2ccccc2C=Cc2ccc(OC)cc21`, the values for the IAr in test [1] and in test [3] were -0.1 and -0.04, respectively. Besides, the Ki was 38 nM in test [2] and 57.5 nM in test [4].
For `COc1ccc2c(c1)C(CNC(C)=O)Cc1ccccc1C2` (configuration not stated), the IAr in test [1] was -0.55; in test [3], -0.18. Also, the values for the Ki in test [2] and in test [4] were 0.661 nM and 6.17 nM, respectively.
As for `COc1ccc2c(c1)C(CCNC(C)=O)Cc1ccccc1C2` (configuration not stated), the IAr is 0.01 in test [1] and -0.07 in test [3]. The Ki in test [2] was 39.8 nM; in test [4] it was 162 nM.
With `CC(=O)NCC(=O)N1c2ccccc2C=Cc2ccccc21`, the Ki in test [2] was 11000 nM; in test [4] it was 20400 nM.
As to `COc1ccc2[nH]cc(CCNC(C)=O)c2c1`, the IAr in test [3] is 1.
As for `CCC(=O)NCCN1c2ccccc2CCc2ccccc21`, the IAr was 0.13 in test [1] and 0.03 in test [3]. The Ki in test [2] was 200 nM; in test [4] it was 550 nM.
On to `CC(=O)NCC1Cc2ccccc2Cc2ccccc21` (configuration not stated), for which the figures for the IAr in test [1] and in test [3] were -0.32 and 0.03, respectively. Also, the figures for the Ki in test [2] and in test [4] were 30.2 nM and 240 nM, respectively.
`CC(=O)NCC1=Cc2ccccc2Cc2ccccc21`: the IAr in test [1] is -0.09; in test [3], 0.02. Also, the Ki is 85.1 nM in test [2] and 550 nM in test [4].
Regarding `COc1ccc2c(c1)C(CNC(C)=O)Cc1ccccc1C2=O` (configuration not stated), the IAr is -0.08 in test [1] and -0.14 in test [3]. In addition, the results for the Ki in test [2] and in test [4] were 0.891 nM and 3.02 nM, respectively.
As for `CCC(=O)NCC1Cc2ccccc2Cc2ccc(OC)cc21` (configuration not stated), the IAr in test [1] was -0.15; in test [3] it was -0.1. In addition, the Ki in test [2] is 0.162 nM; in test [4], 1.35 nM.
For the molecule `CC(=O)NCCC1Cc2ccccc2Cc2ccccc21` (configuration not stated), the values for the IAr in test [1] and in test [3] were 0.69 and 0.21, respectively. Moreover, the Ki in test [2] was 89.1 nM; in test [4], 389 nM.
In the same order, the values of `CCCC(=O)NCC1Cc2ccccc2Cc2ccc(OC)cc21` (configuration not stated) are -0.17, -0.09, 0.245 nM and 1.29 nM.
